Measurements: patent publication US8735384B2, “Amino heteroaryl compounds as beta-secretase modulators and methods of use” (Amgen Inc., priority 2010, dated 2014)

How the values were obtained:
[1] = biological target: BACE1 (Homo sapiens, UniProt P56817); assay: In vitro enzymatic BACE FRET assay; format: biochemical; details: beta secretase enzyme 0.2 nM, FRET substrate 50 nM, pH 4.2; read-out: BACE1 FRET assay (IC50 class)
Procedure: In Vitro Enzymatic BACE FRET (Fluorescence Resonance Energy Transfer) Assay (Enzyme Assay Data in Table 1)
The assay buffer used in this screen is 0.05 M acetate, pH 4.2, 10% DMSO final, 100 uM genapol (which is a nonionic detergent, below its Critical Micelle Concentration). The beta secretase enzyme (0.2 nM) is pre-incubated for one hour with inhibitors, typically in about 1 uL of DMSO according to a serial dilution, are added thereto. The assay is effectively started by the addition of FRET substrate (50 nM) and the combination is incubated for one hour. The FRET assay is terminated with by addition of Tris buffer, which raises the pH to neutrality, and the fluorescence is determined. The FRET substrate is a peptide with commercially available fluorophore and quencher, on opposite sides of the BACE cleavage site. Proteolytic cleavage of the FRET substrate releases quenching of fluorescence (excitation […] and […]).
Of the compounds tested, the in-vitro BACE FRET enzyme data for each of Examples 1-220, where available at the time of filing this application, is provided in Table 1.

[2] = test system: Aβ40 in conditioned medium of cells stably expressing Amyloid Precursor Protein (APP); assay: In vitro BACE cell-based assay (HEK cell assay), Aβ40 sandwich ELISA; details: Homo sapiens, HEK293, 24 h, inhibition of Aβ40, 24 h incubation, read-out: HEK cell assay (IC50 class)
Procedure: In Vitro BACE Cell-Based Assay:
The cell-based assay measures inhibition or reduction of Aβ40 in conditioned medium of test compound treated cells expressing amyloid precursor protein.
Cells stably expressing Amyloid Precursor Protein (APP) were plated at a density of 40K cells/well in 96 well plates (Costar). The cells were cultivated for 24 hours at 37° C. and 5% CO2 in DMEM supplemented with 10% FBS. The test compounds were then added to cells in 10-point dose response concentrations with the starting concentration being either 100 μM or 10 μM. The compounds were diluted from stock solutions in DMSO and the final DMSO concentration of the test compounds on cells was 0.1%. After 24 h of incubation with the test compounds the supernatant conditioned media was collected and the Aβ 40 levels were determined using a sandwich ELISA. The IC50 of the compound was calculated from the percent of control or percent inhibition of Aβ 40 as a function of the concentration of the test compound.
The sandwich ELISA to detect Aβ 40 was performed in 96 well microtiter plates, which were pre-treated with goat anti-rabbit IgG (Pierce). The capture and detecting antibody pair that were used to detect Aβ 40 from cell supernatants were affinity purified pAb40 (Biosource) and biotinylated 6E10 (Signet Labs Inc.), respectively. The optimal concentration for the pAb40 antibody was 3 μg/ml in Superblock/TBS (Pierce) that was supplemented with 0.05% Tween 20 (Sigma). Optimal concentration for the detection antibody 6E10-biotinylated was 0.5 μg/ml in Superblock/TBS (Pierce) that had been supplemented with 2% normal goat serum and 2% normal mouse serum.
Cellular supernatants were incubated with the capture antibody for 3 h at 4° C., followed by 3 wash steps in TBS-tween (0.05%). The detecting antibody incubation was for 2 h at 4° C., again followed by the wash steps as described previously. The final readout of the ELISA is Time-Resolved Fluorescence (counts per minute) using Delfia reagents Streptavidin-Europium and Enhancement solutions (Perkin Elmer) and the Victor 2 multilabel counter (Perkin Elmer).

Chain of BACE1 (P56817 46-501, species assumed): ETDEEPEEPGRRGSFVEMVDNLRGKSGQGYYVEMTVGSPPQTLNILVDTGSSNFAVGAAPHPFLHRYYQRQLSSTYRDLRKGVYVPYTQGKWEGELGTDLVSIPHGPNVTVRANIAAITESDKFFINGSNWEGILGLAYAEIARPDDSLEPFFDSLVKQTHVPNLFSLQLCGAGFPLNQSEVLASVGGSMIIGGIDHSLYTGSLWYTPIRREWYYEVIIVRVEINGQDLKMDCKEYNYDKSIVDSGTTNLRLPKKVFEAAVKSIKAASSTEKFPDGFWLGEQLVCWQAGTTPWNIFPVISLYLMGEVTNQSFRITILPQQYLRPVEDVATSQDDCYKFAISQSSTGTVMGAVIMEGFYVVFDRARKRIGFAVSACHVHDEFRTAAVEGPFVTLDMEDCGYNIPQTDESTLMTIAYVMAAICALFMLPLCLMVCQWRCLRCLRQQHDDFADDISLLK

Row | SMILES | IC50 [1] [nM] | IC50 [2] [nM]
1 | Cc1cccc(C(=O)N2CCCC2)c1-c1ccc2nc(N)c(N3CCCC3)cc2c1 [Example 60, (2-(2-amino-3-(pyrrolidin-1-yl)quinolin-6-yl)-3-methylphenyl)(pyrrolidin-1-yl)methanone] | 100 to 500 | 1010 to 5000
2 | Cc1cccc(C(=O)N2CCCC2)c1-c1ccc2nc(N)c(N3CCCCC3)cc2c1 [Example 61, (2-(2-amino-3-(piperidin-1-yl)quinolin-6-yl)-3-methylphenyl)(pyrrolidin-1-yl)methanone] | 501 to 1000 | 1010 to 5000
3 | CCOC(=O)c1cccc(C)c1-c1ccc2nc(N)c(N3CCOCC3)cc2c1 [Example 62, ethyl 2-(2-amino-3-morpholinoquinolin-6-yl)-3-methylbenzoate] | 100 to 500 | 1010 to 5000
4 | Cc1cccc(C(=O)N2CCCC2C(C)(C)C)c1-c1ccc2nc(N)c(N3CCOCC3)cc2c1 (stereo not drawn) [Example 64, (2-(2-amino-3-morpholinoquinolin-6-yl)-3-methylphenyl)(2-tert-butylpyrrolidin-1-yl)methanone] | < 100 | 501 to 1000
5 | Cc1cccc(C(=O)N2CCCC2C(C)C)c1-c1ccc2nc(N)c(N3CCOCC3)cc2c1 (stereo not drawn) [Example 66, (2-(2-amino-3-morpholinoquinolin-6-yl)-3-methylphenyl)(2-isopropylpyrrolidin-1-yl)methanone] | < 100 | 100 to 500
6 | Cc1cccc(C(=O)N2CCCC2C)c1-c1ccc2nc(N)c(N3CCOCC3)cc2c1 (stereo not drawn) [Example 67, (2-(2-amino-3-morpholinoquinolin-6-yl)-3-methylphenyl)(2-methylpyrrolidin-1-yl)methanone] | < 100 | 100 to 500
7 | Cc1cccc(C(=O)N2C[C@H]3CC[C@@H]2C3)c1-c1ccc2nc(N)c(N3CCOCC3)cc2c1 [Example 68, (2-(2-amino-3-morpholinoquinolin-6-yl)-3-methylphenyl)((1R,4S)-2-azabicyclo[2.2.1]heptan-2-yl)methanone] | < 100 | 100 to 500
8 | COC[C@H]1CCCN1C(=O)c1cccc(C)c1-c1ccc2nc(N)c(N3CCOCC3)cc2c1 [Example 70, (R)-(2-(2-amino-3-morpholinoquinolin-6-yl)-3-methylphenyl)(2-(methoxymethyl)pyrrolidin-1-yl)methanone] | 100 to 500 | 1010 to 5000
9 | COCCN(C)C(=O)c1cccc(C)c1-c1ccc2nc(N)c(N3CCOCC3)cc2c1 [Example 71, 2-(2-amino-3-morpholinoquinolin-6-yl)-N-(2-methoxyethyl)-N,3-dimethylbenzamide] | 100 to 500 | 1010 to 5000
10 | CCC1CCCCN1C(=O)c1cccc(C)c1-c1ccc2nc(N)c(N3CCOCC3)cc2c1 (stereo not drawn) [Example 81, (2-(2-amino-3-morpholinoquinolin-6-yl)-3-methylphenyl)(2-ethylpiperidin-1-yl)methanone] | < 100 | 1010 to 5000
11 | COCCC1CCCCN1C(=O)c1cccc(C)c1-c1ccc2nc(N)c(N3CCOCC3)cc2c1 (stereo not drawn) [Example 83, (2-(2-amino-3-morpholinoquinolin-6-yl)-3-methylphenyl)(2-(2-methoxyethyl)piperidin-1-yl)methanone] | 100 to 500 | 1010 to 5000
12 | Cc1cccc(C(=O)N2[C@H](C)CCC[C@@H]2C)c1-c1ccc2nc(N)c(N3CCOCC3)cc2c1 [Example 84, (2-(2-amino-3-morpholinoquinolin-6-yl)-3-methylphenyl)((2S,6R)-2,6-dimethylpiperidin-1-yl)methanone] | < 100 | 501 to 1000
13 | Cc1cccc(C(=O)N2CCCC(C)(C)C2)c1-c1ccc2nc(N)c(N3CCOCC3)cc2c1 [Example 86, (2-(2-amino-3-morpholinoquinolin-6-yl)-3-methylphenyl)(3,3-dimethylpiperidin-1-yl)methanone] | < 100 | 100 to 500

Continued, values first:

Row | IC50 [1] [nM] | IC50 [2] [nM] | SMILES
14 | 100 to 500 | 1010 to 5000 | CCCC1CCCN1C(=O)c1cccc(C)c1-c1ccc2nc(N)c(N3CCOCC3)cc2c1 (stereo not drawn) [Example 63, (2-(2-amino-3-morpholinoquinolin-6-yl)-3-methylphenyl)(2-propylpyrrolidin-1-yl)methanone]
15 | < 100 | 501 to 1000 | CCC1CCCN1C(=O)c1cccc(C)c1-c1ccc2nc(N)c(N3CCOCC3)cc2c1 (stereo not drawn) [Example 65, (2-(2-amino-3-morpholinoquinolin-6-yl)-3-methylphenyl)(2-ethylpyrrolidin-1-yl)methanone]
16 | < 100 | 100 to 500 | Cc1cccc(C(=O)N2CC[C@@H](F)C2)c1-c1ccc2nc(N)c(N3CCOCC3)cc2c1 [Example 69, (R)-(2-(2-amino-3-morpholinoquinolin-6-yl)-3-methylphenyl)(3-fluoropyrrolidin-1-yl)methanone]
17 | < 100 | 1010 to 5000 | COC1CCN(C(=O)c2cccc(C)c2-c2ccc3nc(N)c(N4CCOCC4)cc3c2)CC1 [Example 72, (2-(2-amino-3-morpholinoquinolin-6-yl)-3-methylphenyl)(4-methoxypiperidin-1-yl)methanone]
18 | 100 to 500 | 1010 to 5000 | COCC1CCN(C(=O)c2cccc(C)c2-c2ccc3nc(N)c(N4CCOCC4)cc3c2)CC1 [Example 73, (2-(2-amino-3-morpholinoquinolin-6-yl)-3-methylphenyl)(4-(methoxymethyl)piperidin-1-yl)methanone]
19 | < 100 | 1010 to 5000 | CCOCC1CCN(C(=O)c2cccc(C)c2-c2ccc3nc(N)c(N4CCOCC4)cc3c2)CC1 [Example 74, (2-(2-amino-3-morpholinoquinolin-6-yl)-3-methylphenyl)(4-(ethoxymethyl)piperidin-1-yl)methanone]
20 | 100 to 500 | 1010 to 5000 | COCCC1CCN(C(=O)c2cccc(C)c2-c2ccc3nc(N)c(N4CCOCC4)cc3c2)CC1 [Example 75, (2-(2-amino-3-morpholinoquinolin-6-yl)-3-methylphenyl)(4-(2-methoxyethyl)piperidin-1-yl)methanone]
21 | < 100 | 1010 to 5000 | CCOC1CCN(C(=O)c2cccc(C)c2-c2ccc3nc(N)c(N4CCOCC4)cc3c2)CC1 [Example 76, (2-(2-amino-3-morpholinoquinolin-6-yl)-3-methylphenyl)(4-ethoxypiperidin-1-yl)methanone]
22 | < 100 | 1010 to 5000 | Cc1cccc(C(=O)N2CCC[C@@H](C)C2)c1-c1ccc2nc(N)c(N3CCOCC3)cc2c1 [Example 77, (R)-(2-(2-amino-3-morpholinoquinolin-6-yl)-3-methylphenyl)(3-methylpiperidin-1-yl)methanone]
23 | < 100 | > 5000 | CCCC1CCN(C(=O)c2cccc(C)c2-c2ccc3nc(N)c(N4CCOCC4)cc3c2)CC1 [Example 78, (2-(2-amino-3-morpholinoquinolin-6-yl)-3-methylphenyl)(4-propylpiperidin-1-yl)methanone]
24 | 100 to 500 | 1010 to 5000 | CCCC1CCCCN1C(=O)c1cccc(C)c1-c1ccc2nc(N)c(N3CCOCC3)cc2c1 (stereo not drawn) [Example 79, (2-(2-amino-3-morpholinoquinolin-6-yl)-3-methylphenyl)(2-propylpiperidin-1-yl)methanone]
25 | < 100 | 1010 to 5000 | Cc1cccc(C(=O)N2CCC(C)CC2)c1-c1ccc2nc(N)c(N3CCOCC3)cc2c1 [Example 80, (2-(2-amino-3-morpholinoquinolin-6-yl)-3-methylphenyl)(4-methylpiperidin-1-yl)methanone]
26 | 100 to 500 | 1010 to 5000 | COC1CCCN(C(=O)c2cccc(C)c2-c2ccc3nc(N)c(N4CCOCC4)cc3c2)C1 (stereo not drawn) [Example 82, (2-(2-amino-3-morpholinoquinolin-6-yl)-3-methylphenyl)(3-methoxypiperidin-1-yl)methanone]
27 | 100 to 500 | 1010 to 5000 | CCOC1CCCN(C(=O)c2cccc(C)c2-c2ccc3nc(N)c(N4CCOCC4)cc3c2)C1 (stereo not drawn) [Example 85, (2-(2-amino-3-morpholinoquinolin-6-yl)-3-methylphenyl)(3-ethoxypiperidin-1-yl)methanone]
